Columns and labels:
[1] = test system: BICR78 (Oral Cavity Carcinoma); assay: Bliss excess, mean over the matrix (fraction); higher = more synergy
Outline: (§1)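 Cell lines in DMEM/F12 or RPMI with 10% FBS were plated in 1536-well plates, held 24 hours at 37°C, 5% CO2, then given two-drug dose matrices for 72 hours (DMSO typically 0.2%). Viability was read by CellTiter-Glo 2.0 luminescence and scaled as inhibition from 0 (vehicle wells) to 1 (blank wells). Combination Emax is the second-highest inhibition in the matrix; Bliss excess is observed combination effect minus expected EA + EB − EA·EB, EA and EB being single-agent effects.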

CS1 (Chondrosarcoma) = assay: as above
Outline: as §1

[2] = test system: DOK (Oral Cavity Carcinoma); assay: as above
Outline: as §1

[3] = test system: ETK-1 (Biliary Tract Carcinoma); assay: as above
Outline: as §1

EW-22 (Ewing's Sarcoma) = assay: as above
Outline: as §1

HCC38 (Breast Carcinoma) = assay: as above
Outline: as §1

[4] = test system: HOP-92 (Non-Small Cell Lung Carcinoma); assay: as above
Outline: as §1

HuO9 (Osteosarcoma) = assay: as above
Outline: as §1

[5] = test system: JHH-6 (Hepatocellular Carcinoma); assay: as above
Outline: as §1

[6] = test system: KG-1 (Acute Myeloid Leukemia); assay: as above
Outline: as §1

[7] = test system: MEG-01 (Chronic Myelogenous Leukemia); assay: as above
Outline: as §1

[8] = test system: PA-TU-8902 (Pancreatic Carcinoma); assay: as above
Outline: as §1

SK-MEL-1 (Melanoma) = assay: as above
Outline: as §1

[9] = test system: SW948 (Colorectal Carcinoma); assay: as above
Outline: as §1

[10] = test system: EKVX (Non-Small Cell Lung Carcinoma); assay: combination Emax (second highest fraction inhibited in the dose matrix, 72 h); higher = more inhibition; extreme values may be limits of the assay
Outline: as §1

H4 (Low Grade Glioma) = assay: as above
Outline: as §1

[11] = test system: HOP-92 (Non-Small Cell Lung Carcinoma); assay: as above
Outline: as §1

[12] = test system: KG-1 (Acute Myeloid Leukemia); assay: as above
Outline: as §1

[13] = test system: MES-SA (Other Solid Carcinomas); assay: as above
Outline: as §1

[14] = test system: SK-UT-1 (Other Solid Carcinomas); assay: as above
Outline: as §1
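Wherever Bliss excess, mean over the matrix is given: after 72 h of two-drug dosing.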

| Structure (SMILES) | Bliss excess [1] | Bliss excess (CS1 (Chondrosarcoma)) | Bliss excess [2] | Bliss excess [3] | Bliss excess (EW-22 (Ewing's Sarcoma)) | Bliss excess (HCC38 (Breast Carcinoma)) | Bliss excess [4] | Bliss excess (HuO9 (Osteosarcoma)) | Bliss excess [5] | Bliss excess [6] | Bliss excess [7] | Bliss excess [8] | Bliss excess (SK-MEL-1 (Melanoma)) | Bliss excess [9] | combination Emax [10] | combination Emax (H4 (Low Grade Glioma)) | combination Emax [11] | combination Emax [12] | combination Emax [13] | combination Emax [14] |
| --- | --- | --- | --- | --- | --- | --- | --- | --- | --- | --- | --- | --- | --- | --- | --- | --- | --- | --- | --- | --- |
| CC1(C)CCC(CN2CCN(c3ccc(C(=O)NS(=O)(=O)c4ccc(NCC5CCOCC5)c([N+](=O)[O-])c4)c(Oc4cnc5[nH]ccc5c4)c3)CC2)=C(c2ccc(Cl)cc2)C1 [Venetoclax] + C[C@@H]1COCCN1C2=NC(=NC(=C2)C3(CC3)[S@](=N)(=O)C)C4=C5C=CNC5=NC=C4 [AZD6738] (first compound max 1 µM, 7x7, partner max 10 µM) | -0.0397 | 0.0039 | -0.0833 | -0.0562 | -0.0189 | -0.0264 | -0.0427 | 0.0275 | -0.03 | 0.075 | -0.0256 | -0.0236 | -0.027 | -0.0835 | 0.214 | 0.768 | 0.562 | 0.917 | 0.671 | 0.895 |
| CC1(C)CCC(CN2CCN(c3ccc(C(=O)NS(=O)(=O)c4ccc(NCC5CCOCC5)c([N+](=O)[O-])c4)c(Oc4cnc5[nH]ccc5c4)c3)CC2)=C(c2ccc(Cl)cc2)C1 [Venetoclax] + C[C@@H](Nc1cc(F)cc(F)c1)c1cc(C(=O)N(C)C)cc2c(=O)cc(N3CCOCC3)oc12 [AZD8186] (first compound max 1 µM, 7x7, partner max 3 µM) | -0.0423 | -0.0923 | -0.0548 | -0.0284 | 0.0333 | -0.0075 | -0.0212 | 0.0776 | -0.0135 | 0.114 | -0.0492 | -0.0453 | -0.0239 | -0.0518 | 0.367 | 0.383 | 0.206 | 0.508 | 0.168 | 0.206 |
| CC1(C)CCC(CN2CCN(c3ccc(C(=O)NS(=O)(=O)c4ccc(NCC5CCOCC5)c([N+](=O)[O-])c4)c(Oc4cnc5[nH]ccc5c4)c3)CC2)=C(c2ccc(Cl)cc2)C1 [Venetoclax] + Cc1cc2ncnn2cc1Nc1ncc2c(n1)n(C1CCOCC1)c(=O)n2C [AZD7648] (first compound max 1 µM, 7x7, partner max 10 µM) | -0.0493 | -0.0949 | -0.0208 | 0.0273 | -0.0094 | -0.007 | -0.0194 | 0.0557 | -0.0302 | 0.0848 | -0.0249 | -0.0715 | -0.0242 | -0.0448 | 0.161 | 0.322 | 0.263 | 0.651 | 0.302 | 0.221 |
| CC1(C)CCC(CN2CCN(c3ccc(C(=O)NS(=O)(=O)c4ccc(NCC5CCOCC5)c([N+](=O)[O-])c4)c(Oc4cnc5[nH]ccc5c4)c3)CC2)=C(c2ccc(Cl)cc2)C1 [Venetoclax] + Cn1cnc2c(F)c(Nc3ccc(Br)cc3Cl)c(C(=O)NOCCO)cc21 [Selumetinib] (first compound max 1 µM, 7x7, partner max 3 µM) | -0.0354 | -0.0498 | -0.0258 | -0.0333 | -0.0233 | -0.0322 | -0.0338 | -0.0173 | -0.0252 | 0.0735 | -0.0242 | -0.0178 | -0.0332 | -0.0505 | 0.343 | 0.232 | 0.148 | 0.726 | 0.138 | 0.221 |
